# Results reported in ChEMBL document CHEMBL1201862, “PubChem BioAssay data set” (2004).
# Activity calls are given as the source filed them.
# Experiments:
# [1] = EF1alpha-driven Renilla reporter with control 3'UTR suppression – Clone20-Shn3RL cells, dual-Glo, cherry-pick, set 2, counter-screen for Shn3 3'UTR targeting project, dose response (AID 720724); assay type: functional, cell-based; conditions: Dual-Go Shn3RL
# [2] = loss of viability in HepG2 cells – cell-based, CellTiter-Glo, cherry-picked, cytotoxicity control for Shn3 inhibitor project, dose response (AID 624134); assay type: functional
# [3] = Shn3 3'UTR reporter signal decrease – cell-based, Clone20 osteoblasts, firefly luciferase, cherry-pick, set 2, Schnurri-3 inhibitor project, dose response (AID 720490); assay type: functional;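 also: actives lower the luminescence signal as inhibitors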
# [4] = non-specific 3'UTR reporter inhibition in Clone20-Shn3RL – cell-based, Renilla luciferase, cherry-picked, counter-screen for Shn3 inhibitor project, dose response (AID 624133); assay type: functional
# [5] = reduction of Shn3 3'UTR-driven luciferase in osteoblasts – cell-based, Clone20 osteoblasts, firefly luciferase, cherry-picked, dose response (AID 624132); assay type: functional;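 also: firefly luciferase luminescence from reporter carrying the Shn3 3'UTR in osteoblasts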
# [6] = molecular target: Metabotropic glutamate receptor 3 (Rattus norvegicus, UniProt P31422); assay: inhibition of rat mGlu3 glutamate signaling – HEK/GIRK cells, thallium flux, dose response (AID 651839); assay type: functional
# Metabotropic glutamate receptor 3, sequence (P31422 whole entry): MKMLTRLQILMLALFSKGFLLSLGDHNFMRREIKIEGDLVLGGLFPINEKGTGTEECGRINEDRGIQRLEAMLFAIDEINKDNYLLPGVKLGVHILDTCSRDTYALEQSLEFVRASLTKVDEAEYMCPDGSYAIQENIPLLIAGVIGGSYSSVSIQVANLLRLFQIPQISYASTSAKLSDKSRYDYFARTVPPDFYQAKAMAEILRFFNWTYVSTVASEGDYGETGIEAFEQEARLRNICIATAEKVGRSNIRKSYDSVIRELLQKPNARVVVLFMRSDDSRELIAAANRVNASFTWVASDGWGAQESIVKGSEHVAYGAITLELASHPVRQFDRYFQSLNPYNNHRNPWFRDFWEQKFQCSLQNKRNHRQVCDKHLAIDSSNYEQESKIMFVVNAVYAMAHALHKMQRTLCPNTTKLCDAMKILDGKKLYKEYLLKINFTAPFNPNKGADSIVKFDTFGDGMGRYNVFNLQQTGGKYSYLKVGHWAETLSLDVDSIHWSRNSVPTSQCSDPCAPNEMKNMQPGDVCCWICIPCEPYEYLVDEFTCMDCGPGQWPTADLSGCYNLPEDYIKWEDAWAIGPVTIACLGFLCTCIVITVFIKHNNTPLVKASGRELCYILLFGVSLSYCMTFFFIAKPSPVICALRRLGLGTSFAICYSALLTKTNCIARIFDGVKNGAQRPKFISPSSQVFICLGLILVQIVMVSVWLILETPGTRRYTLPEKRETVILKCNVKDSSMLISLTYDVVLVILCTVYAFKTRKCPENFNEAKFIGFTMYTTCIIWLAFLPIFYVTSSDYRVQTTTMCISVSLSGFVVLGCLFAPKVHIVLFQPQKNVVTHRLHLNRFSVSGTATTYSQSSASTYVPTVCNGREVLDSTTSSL
# cells = conditions: A549
# [7] = general mammalian cell viability loss – activator set, cherry-pick, cytotoxicity control for miR-122 modulator project, dose response (AID 720690); assay type: functional, cell-based;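 also: HEK293T human cells scored for general mammalian cytotoxicity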
# [8] = NIH3T3 cell viability loss – ATP luminescence, mouse fibroblasts, counter-screen, dose response (AID 2010); assay type: functional, cell-based;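 also: cells exposed to compound for about 90 hours before reading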
# INS1 = assay: INS-1E survival protection against cytokine death – cell-based, luminescence, retest, dose response (AID 449756); assay type: functional; conditions: Rattus norvegicus;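 also: cell death triggered by IL-1 beta plus TNF-alpha plus IFN-gamma mixture; protective hits raise ATP signal compared with cytokine alone wells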
# [9] = Trypanosoma cruzi growth suppression in host cells – NIH3T3 host cells, beta-gal luminescence, confirmation (AID 2044); assay type: functional, cell-based;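 also: intracellular parasites grown in NIH/3T3 mouse fibroblasts as host cells; luminescent beta-galactosidase reporter signal from transgenic T. cruzi replicating inside host cells; inhibitors lower the luminescence signal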
# HEK293 = assay: EBV LMP1 TES2 canonical NF-kB signalling blockers – cell-based, HEK293, luciferase, cherry-pick, dose response (AID 588343); assay type: functional; conditions: Homo sapiens
# [10] = general mammalian cell viability loss – inhibitor set, cherry-pick, set 2, cytotoxicity control for miR-122 modulator project, dose response (AID 720697); assay type: functional, cell-based
# [11] = inhibition of mouse IRAP aminopeptidase activity – biochemical, Leu-AMC fluorescence, cherry-picked samples, set 2, selectivity assay for ERAP1 modulator project, dose response (AID 743340)
# [12] = MITF: Counter assay: A375 proliferation Measured in Cell-Based System Using Plate Reader - 2084-03_Inhibitor_Dose_DryPowder_Activity_Set8.; assay type: functional; conditions: A-375
# [13] = MITF Orthogonal Assay: SK-MEL-5 CTG Assay Measured in Cell-Based System Using Plate Reader - 2084-02_Inhibitor_Dose_DryPowder_Activity_Set7.; assay type: functional
# [14] = inhibitors of TRPM1-promoter reporter in SK-MEL-5 – cell-based, luciferase, dry powder, set 8, MITF inhibitor project, dose response (AID 624430); assay type: functional
# [15] = Late stage assay provider results from the probe development effort to identify inhibitors of the Plasmodium falciparum M17 Leucine Aminopeptidase (M17LAP): radiolabel-based cell-based dose response assay to identify compounds that inhibit P. falciparum growth in RBCs Set 2.; assay type: functional
# [16] = IGROV1 cell killing – plate reader, dry powder samples, PAX8 inhibitor project, dose response (AID 743043); assay type: functional, cell-based; conditions: IGROV-1
# [17] = inhibitors acting on PAX2 in cells – cell-based, plate reader, dry powder samples, selectivity assay for PAX8 inhibitor project, dose response (AID 743048); assay type: functional;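 also: HEK293 cells carrying a WT1 promoter luciferase reporter driven by expressed Pax2; potency is for inhibition of Pax2 driven reporter signal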
# [18] = COV362 cell viability loss – plate reader, dry powder, SA12, cytotoxicity control for PAX8 inhibitor project, dose response (AID 743144); assay type: functional, cell-based
# [19] = PAX5 cellular inhibition readout – cell-based, plate reader, dry powder samples, selectivity assay for PAX8 inhibitor project, dose response (AID 743047); assay type: functional;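 also: HEK293 cells carrying a Pax5 driven CD19 promoter luciferase reporter; potency of inhibitors that lower reporter luminescence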
# [20] = OVCAR-3 cell viability loss – plate reader, dry powder samples, PAX8 inhibitor project, dose response (AID 743044); assay type: functional, cell-based
# [21] = PAX8-dependent cell viability loss – plate reader, dry powder, dose response (AID 743049); assay type: functional, cell-based
# [22] = OVCAR4 cell viability loss – plate reader, dry powder, SA11, cytotoxicity control for PAX8 inhibitor project, dose response (AID 743150); assay type: functional, cell-based; conditions: OVCAR-4
# [23] = COV434 cell viability loss – plate reader, dry powder, SA7, cytotoxicity control for PAX8 inhibitor project, dose response (AID 743145); assay type: functional, cell-based
# [24] = OV-90 cell viability loss – plate reader, dry powder, SA8, PAX8 inhibitor project, dose response (AID 743149); assay type: functional, cell-based
# [25] = toxicity toward immortalized ovarian surface epithelium – cell-based, plate reader, dry powder samples, cytotoxicity control for PAX8 inhibitor project, dose response (AID 743045); assay type: functional
# [26] = fluconazole-exposed Candida albicans growth modulators – fluorescence, retest, confirmation (AID 2467); assay type: functional, cell-based
# [27] = tested on: Streptococcus sp. 'group A'; assay: Streptococcus pyogenes SK(-)GAS viability under kanamycin – luminescence, BacTiterGlo, confirmation, counter-screen for streptokinase expression inhibitor project, dose response (AID 1900); assay type: functional, organism-based
# [28] = HGIII-sPLA2 enzyme inhibition potency – biochemical, QFRET, IC50, dose response (AID 743457);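 also: green fluorescence rise as the enzyme cleaves BODIPY PC-A2 in liposomes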
# [29] = NIH-3T3 fibroblast cytotoxicity, dose response, cytotoxicity control, cell-based, fluorescence, Alamar Blue, secondary assay (AID 2327); assay type: functional;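 also: NIH-3T3 mouse fibroblasts cultured with fluconazole at 8 µg/mL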
# Vero = assay: cells; assay type: functional; conditions: Chlorocebus sabaeus
# Streptococcus = assay: GAS UMAA2166 growth inhibition – luminescence, BacTiterGlo, counter-screen for streptokinase expression inhibitor project, dose response (AID 1915); assay type: functional, organism-based;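 also: potency for reduction of bacterial viability or growth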
structure (smiles),measurement,setting,value
CC1CCCC(NC(=O)c2cccc(S(=O)(=O)N3CCN(c4ccccc4)CC3)c2)C1C (stereo not drawn),AC50,[1],25.2 µM (active)
same,AC50,[2],> 70 µM (inactive)
same,AC50,[3],4.29 µM (active)
same,AC50,[4],> 70 µM (inactive)
same,AC50,[5],3.14 µM (active)
COc1ccc(C#Cc2ccc(C(=O)N3CC[C@H](O)C3)cc2)cc1,IC50,[6],8.66 µM (active)
CCN(CC)c1ccc2c(C)c(Cl)c(=O)oc2c1,AC50,cells,> 52 µM (inactive)
COc1ccc(C(NC(C)=O)c2cc(Cl)c3cccnc3c2O)cc1 (stereo not drawn),AC50,[7],12.1 µM (active)
same,EC50,[8],4.23 µM (active)
same,AC50,[2],3.17 µM (active)
same,AC50,INS1,1.95 µM (active)
same,EC50,[9],1.47 µM (active)
same,AC50,HEK293,4.38 µM (active)
same,AC50,[4],1.66 µM (active)
same,AC50,[10],2.06 µM (active)
same,AC50,[5],1.61 µM (active)
C[C@@H]1CCCCO[C@@H](CN(C)S(C)(=O)=O)[C@@H](C)CN([C@@H](C)CO)C(=O)c2cc(NS(=O)(=O)c3ccc(Cl)cc3)ccc2O1,AC50,[11],17.6 µM (active)
CN1CCN(C2=C(Nc3cccc(Cl)c3)C(=O)c3ccccc3C2=O)CC1,AC50,[12],30.7 µM (active)
same,AC50,[13],11.1 µM (active)
same,AC50,[14],5.11 µM (active)
COc1ccc(CC(=O)NO)cc1,IC50,[15],20 µM (inactive)
O=C(CCCN1C(=O)/C(=C\c2ccccc2OC(F)F)SC1=S)Nc1cccnc1,AC50,[16],9.15 µM (active)
same,AC50,[17],> 100 µM (inactive)
same,AC50,[18],18.1 µM (active)
same,AC50,[19],81 µM (active)
same,AC50,[20],21.6 µM (active)
same,AC50,[21],7.44 µM (active)
same,AC50,[22],14.8 µM (active)
same,AC50,[23],34.5 µM (active)
same,AC50,[24],46.2 µM (active)
same,AC50,[25],46.9 µM (active)
Cc1cc(C(=O)Nc2nc(-c3ccccn3)cs2)ccc1[N+](=O)[O-],EC50,[26],1.25 µM (active)
same,EC50,[27],0.471 µM (active)
same,IC50,[28],> 122 µM (inactive)
same,EC50,[29],> 150 µM (inactive)
same,CC50,Vero,> 25 µM (active)
same,EC50,[9],1.11 µM (active)
same,EC50,Streptococcus,7.36 µM (active)
